This experiment is described as follows: Dual-Glo Luciferase Assay: The Dual-Glo Luciferase Reagent was prepared by transferring the contents of one bottle of Dual-Glo Luciferase Buffer to one bottle of Dual-Glo Luciferase Substrate to create the Dual-Glo Luciferase Reagent. Mixing was performed by inversion until the substrate was thoroughly dissolved. After mixing, the reagent was aliquoted into 15 ml tubes. In the afternoon (24 hrs post compound treatment), the DMEM+medium in the 384 well plates were aspirated by Microplate Washer.Measuring firefly luciferase activity: 20 ul Dual-Glo Luciferase Reagent was added to the 384-well plates. The plates were protected from light to prevent interference with the assay. The plates were shaken for 1 min followed centrifuging plates at 1000 rpm for 30 seconds. After waiting at least 10 minutes, the firefly luminescence was measured by Envision.Measuring renilla luciferase activity: 20 ul Stop-Glo Reagent was added to the 384-well plates. The plates were shaken for 1 min and then centrifuged at 1000 rpm for 30 seconds. After waiting at least 10 minutes, the renilla luminescence was measured by Envision.Compound IC50 and maximum inhibition on the firefly luciferase and renilla luciferase activities were reported separately.

As a reminder, the IC50 is the concentration that inhibits the measured activity by half. A lower IC50 goes with inhibition by little substance. Turning to `C[C@H](NC(=O)c1ccc2c(Oc3ccc(C(F)(F)F)cc3)cccc2c1)C1CN(CC(F)F)C1`, the IC50 entry is “in the range around 2000 nM”.

Turning to `C[C@@H](NC(=O)c1cnc2c(Oc3ccc(C(F)(F)F)cc3)cccc2c1)c1cccc2ccsc12`, the IC50 result was “in the range around 550 nM”.

For the compound `O=C(NC(CO)Cc1ccccn1)c1ccc2c(Oc3ccc(C(F)(F)F)cc3)cccc2c1` (centres undefined), the IC50 is less than 100 nM.

Compound `C[C@H](CCN)NC(=O)c1ccc2c(Oc3ccc(C(F)(F)F)cc3)cccc2c1` yielded an IC50 of less than 100 nM.

Regarding `C[C@@H](NC(=O)c1ccc2c(Oc3ccc(C(F)(F)F)cc3)cccc2c1)C1COC1`, the IC50 is less than 100 nM.

With `C[C@@H](NC(=O)c1cnc2c(Oc3ccc(C(F)(F)F)cc3)cccc2c1)c1cccc2nc[nH]c12`, the IC50 result was “in the range around 550 nM”.

As to `C[C@@H](NC(=O)c1ccc2c(Oc3ccc(C(F)(F)F)cc3)cccc2c1)C1CN(CCO)C1`, the IC50 entry is “in the range around 550 nM”.

Regarding `CC(=O)N1CC([C@@H](C)NC(=O)c2ccc3c(Oc4ccc(C(F)(F)F)cc4)cccc3c2)C1`, the IC50 entry was “in the range around 550 nM”.

Regarding `O=C(NC1(c2ccccc2)CC1)c1ccc2c(Oc3ccc(C(F)(F)F)cc3)cccc2c1`, the IC50 is less than 100 nM.

For the compound `N#CNC(=O)c1ccc2c(Oc3ccc(C(F)(F)F)cc3)cccc2c1`, the IC50 entry was “in the range around 550 nM”.

Consider `C[C@@H](NC(=O)c1ccc2c(Oc3ccc(C(F)(F)F)cc3)cccc2c1)c1cnccn1`, for which the IC50 is less than 100 nM.

Consider `COc1cc(Oc2ccc(C(F)(F)F)cc2)c2ncc(C(=O)N[C@H](C)CO)cc2c1`, for which the IC50 was less than 100 nM.

Compound `CC(C)NC(=O)c1ccc2c(Oc3ccc(C(F)(F)F)cc3)nccc2c1` registered an IC50 of less than 100 nM.

For the compound `C[C@@H](NC(=O)c1ccc2c(Oc3ccc(C(F)(F)F)cc3)cccc2c1)c1nnnn1C`, the IC50 result was “in the range around 550 nM”.

The compound `C#C[C@@H](C)NC(=O)c1ccc2c(Oc3ccc(C(F)(F)F)cc3)cccc2c1` gave an IC50 of less than 100 nM.

On to `C[C@H](NC(=O)c1ccc2c(Oc3ccc(C(F)(F)F)cc3)cccc2c1)c1cc(N)ccn1`, for which the concentration for half-maximal inhibition (IC50) entry is “in the range around 550 nM”.

On to `C[C@H](CO)NC(=O)c1ccc2c(Oc3ccc(C(F)(F)F)cc3)nccc2c1`, for which the 50% inhibitory concentration (IC50) is less than 100 nM.

In the case of `CC(=O)N1CC([C@H](C)NC(=O)c2ccc3c(Oc4ccc(C(F)(F)F)cc4)cccc3c2)C1`, the IC50 result is “in the range around 550 nM”.

`CNCC[C@@H](C)NC(=O)c1ccc2c(Oc3ccc(C(F)(F)F)cc3)cccc2c1` gave an IC50 of less than 100 nM.

Consider `COC[C@@H](C)NC(=O)c1cnc2c(Oc3ccc(C(F)(F)F)cc3)cc(OC)cc2c1`, for which the IC50 was less than 100 nM.

Consider `C[C@H](NC(=O)c1ccc2c(Oc3ccc(C(F)(F)F)cc3)cccc2c1)c1cccc(N)n1`, for which the IC50 entry is “in the range around 550 nM”.

With `O=C(N[C@@H](CO)C1CNC1)c1ccc2c(Oc3ccc(C(F)(F)F)cc3)cccc2c1`, the IC50 entry is “in the range around 2000 nM”.

The compound `COC[C@H](C)NC(=O)c1cnc2c(Oc3ccc(C(F)(F)F)cc3)cc(OC)cc2c1` had a 50% inhibitory concentration (IC50) of less than 100 nM.

For the compound `C[C@H](NC(=O)c1ccc2c(Oc3ccc(C(F)(F)F)cc3)cccc2c1)c1cc(N(C)C)ccn1`, the IC50 entry is “in the range around 550 nM”.

For the compound `C[C@@H](NC(=O)c1ccc2c(Oc3ccc(C(F)(F)F)cc3)cccc2c1)c1ccccn1`, the concentration for half-maximal inhibition (IC50) result is “in the range around 550 nM”.

As to `C[C@H](NC(=O)c1ccc2c(Oc3ccc(C(F)(F)F)cc3)cccc2c1)c1cnccn1`, the IC50 result was “in the range around 550 nM”.

`CS(=O)(=O)NC(=O)c1ccc2c(Oc3ccc(Cl)c(Cl)c3)cccc2c1` displayed an IC50 of less than 100 nM.

`C[C@@H](NC(=O)c1ccc2c(Oc3ccc(C(F)(F)F)cc3)cccc2c1)C1CC1` gave an IC50 of less than 100 nM.

Consider `O=C(NC(CCO)CCO)c1ccc2c(Oc3ccc(C(F)(F)F)cc3)cccc2c1`, for which the IC50 is less than 100 nM.

Compound `C#C[C@H](C)NC(=O)c1ccc2c(Oc3ccc(C(F)(F)F)cc3)cccc2c1` registered a 50% inhibitory concentration (IC50) of less than 100 nM.

Compound `CS(=O)(=O)NC(=O)c1ccc2c(Oc3ccc(F)c(F)c3)cccc2c1` had an IC50 of less than 100 nM.

As to `C[C@@H](NC(=O)c1ccc2c(Oc3ccc(C(F)(F)F)cc3)cccc2c1)C1(F)CNC1`, the IC50 result is “in the range around 550 nM”.

On to `C[C@H](NC(=O)c1ccc2c(Oc3ccc(C(F)(F)F)cc3)cccc2c1)c1ccccc1Cl`, for which the IC50 is less than 100 nM.

On to `C[C@@H](NC(=O)c1ccc2c(Oc3ccc(C(F)(F)F)cc3)cccc2c1)c1c[nH]cn1`, for which the IC50 is less than 100 nM.

As to `C[C@H](NC(=O)c1ccc2c(Oc3ccc(C(F)(F)F)cc3)cccc2c1)C1CN(CCO)C1`, the IC50 entry is “in the range around 550 nM”.

In the case of `C[C@@H](NC(=O)c1cnc2c(Oc3ccc(C(F)(F)F)cc3)cccc2c1)c1ccccn1`, the concentration for half-maximal inhibition (IC50) result is “in the range around 550 nM”.

Take `C[C@H](CCNCCO)NC(=O)c1ccc2c(Oc3ccc(C(F)(F)F)cc3)cccc2c1`: the IC50 is less than 100 nM.

As for `CCN1CC([C@H](C)NC(=O)c2ccc3c(Oc4ccc(C(F)(F)F)cc4)cccc3c2)C1`, the IC50 result was “in the range around 550 nM”.

Consider `C[C@@H](NC(=O)c1ccc2c(Oc3ccc(C(F)(F)F)cc3)cccc2c1)c1cccnc1N`, for which the IC50 entry was “in the range around 2000 nM”.

For the compound `C[C@@H](NC(=O)c1ccc2c(Oc3ccc(C(F)(F)F)cc3)cccc2c1)c1cn(C)cn1`, the IC50 was less than 100 nM.

In turn, `C[C@@H](NC(=O)c1ccc2c(Oc3ccc(C(F)(F)F)cc3)cccc2c1)C1CCC1` yielded an IC50 of less than 100 nM.

Compound `COc1cc(Oc2ccc(C(F)(F)F)cc2)c2ncc(C(=O)N[C@@H](C)c3ccccn3)cc2c1` displayed an IC50 of less than 100 nM.

Compound `C[C@H](CCO)NC(=O)c1ccc2c(Oc3ccc(C(F)(F)F)cc3)cccc2c1` returned an IC50 of less than 100 nM.

With `C[C@H](NC(=O)c1ccc2c(Oc3ccc(C(F)(F)F)cc3)cccc2c1)C(N)=O`, the half-inhibitory concentration (IC50) is less than 100 nM.

For the compound `O=C(N[C@H](CCO)c1ccccn1)c1ccc2c(Oc3ccc(C(F)(F)F)cc3)cccc2c1`, the IC50 result was “in the range around 550 nM”.

In the case of `C[C@H](NC(=O)c1ccc2c(Oc3ccc(C(F)(F)F)cc3)cccc2c1)c1ncc[nH]1`, the IC50 entry is “in the range around 550 nM”.

`O=C(NC(CO)c1ccccn1)c1ccc2c(Oc3ccc(C(F)(F)F)cc3)cccc2c1` (centres undefined): the IC50 was less than 100 nM.

On to `CS(=O)(=O)NC(=O)c1ccc2c(Oc3ccc(C(F)(F)F)cc3)cccc2c1`, for which the IC50 was less than 100 nM.

Consider `O=C(NC(CO)c1ccccn1)c1cnc2c(Oc3ccc(C(F)(F)F)cc3)cccc2c1` (centres undefined), for which the IC50 was less than 100 nM.

On to `C[C@@H](NC(=O)c1ccc2c(Oc3ccc(C(F)(F)F)cc3)cccc2c1)C1CCN(CC(F)F)CC1`, for which the IC50 result is “in the range around 550 nM”.

As to `C[C@H](CO)NC(=O)c1cnc2c(Oc3ccc(C(F)(F)F)cc3)cccc2c1`, the IC50 is less than 100 nM.

Consider `CC(C)NC(=O)c1ccc2c(Oc3ccc(C(F)(F)F)cc3F)cccc2c1`, for which the IC50 is less than 100 nM.

In turn, `CN(C#N)CCNC(=O)c1ccc2c(Oc3ccc(C(F)(F)F)cc3)cccc2c1` displayed an IC50 of less than 100 nM.

The compound `COc1cc(Oc2ccc(C(F)(F)F)cc2)c2ncc(C(=O)NC(C)C)cc2c1` returned an IC50 of less than 100 nM.

`C[C@@H](NC(=O)c1ccc2c(Oc3ccc(C(F)(F)F)cc3)cccc2c1)c1cc(N)ccn1` came in with an IC50 of less than 100 nM.

As for `C[C@@H](NC(=O)c1ccc2c(Oc3ccc(C(F)(F)F)cc3)cccc2c1)C1CN(CC(F)F)C1`, the IC50 was less than 100 nM.

Consider `C[C@H](NC(=O)c1ccc2c(Oc3ccc(C(F)(F)F)cc3)cccc2c1)C1CNC1`, for which the IC50 is less than 100 nM.

The compound `C[C@@H](CN)NC(=O)c1ccc2c(Oc3ccc(C(F)(F)F)cc3)cccc2c1` returned an IC50 of less than 100 nM.

On to `C[C@H](NC(=O)c1ccc2c(Oc3ccc(C(F)(F)F)cc3)cccc2c1)C1CCC1`, for which the IC50 was less than 100 nM.

For the compound `CC(C)NC(=O)c1ccc2c(Oc3ccc(Cl)cc3)cccc2c1`, the IC50 was less than 100 nM.

Take `CC(C)NC(=O)c1ccc2c(Oc3ccc(C(F)(F)F)cc3)ccnc2c1`: the IC50 result is “in the range around 550 nM”.

Turning to `C[C@@H](NC(=O)c1ccc2c(Oc3ccc(C(F)(F)F)cc3)cccc2c1)c1cccc(N(C)C)n1`, the IC50 is less than 100 nM.

The compound `COC[C@H](C)NC(=O)c1ccc2c(Oc3ccc(C(F)(F)F)cc3)cccc2c1` came in with an IC50 of less than 100 nM.

With `CC(C)N1CC([C@@H](C)NC(=O)c2ccc3c(Oc4ccc(C(F)(F)F)cc4)cccc3c2)C1`, the IC50 entry is “in the range around 2000 nM”.

`CC#C[C@H](C)NC(=O)c1ccc2c(Oc3ccc(C(F)(F)F)cc3)cccc2c1`: the concentration for half-maximal inhibition (IC50) was less than 100 nM.

In the case of `CC(C)NC(=O)c1ccc2c(Oc3cccc(Cl)c3)cccc2c1`, the IC50 was less than 100 nM.

For `C[C@H](NC(=O)c1ccc2c(Oc3ccc(C(F)(F)F)cc3)cccc2c1)c1cccnc1N`, the IC50 is less than 100 nM.

The compound `C[C@H](CCNCCF)NC(=O)c1ccc2c(Oc3ccc(C(F)(F)F)cc3)cccc2c1` registered an IC50 of less than 100 nM.

In turn, `C[C@H](CCNCC(F)F)NC(=O)c1ccc2c(Oc3ccc(C(F)(F)F)cc3)cccc2c1` registered an IC50 of less than 100 nM.

Take `C[C@H](CO)NC(=O)c1cc2cccc(Oc3ccc(C(F)(F)F)cc3)c2s1`: the IC50 is less than 100 nM.

Turning to `CC(C)NC(=O)c1ccc2c(Oc3ccc(Cl)c(Cl)c3)cccc2c1`, the IC50 was less than 100 nM.

Consider `CC(C)NC(=O)c1ccc2c(Oc3ccc(C(F)(F)F)cc3)cccc2c1`, for which the IC50 is less than 100 nM.

In turn, `C#CCCNC(=O)c1ccc2c(Oc3ccc(C(F)(F)F)cc3)cccc2c1` yielded an IC50 of less than 100 nM.

The compound `C[C@H](NC(=O)c1ccc2c(Oc3ccc(C(F)(F)F)cc3)cccc2c1)C1CC1` came in with an IC50 of less than 100 nM.
